Experimental data reported in patent US20240122857A1, “PHARMACEUTICAL FORMULATIONS OF INDOLEAMINE 2, 3-DIOXYGENASE INHIBITORS” (BRISTOL-MYERS SQUIBB COMPANY, priority 2019, published 2024).
Structures can show the parent of a compound that is named as a salt.

Experiment: Excipient compatibility study
Format: physicochemical

- chemical stability with commonly used pharmaceutical excipients: acceptable chemical stability
Compound: C[C@@H](C(=O)Nc1ccc(Cl)cc1)[C@H]1CC[C@@H](c2ccnc3ccc(F)cc32)CC1 [Compound I-MSA, (R)—N-(4-chlorophenyl)-2-((1S, 4S)-4-(6-fluoroquinolin-4-yl)cyclohexyl) propanamide methane sulfonic acid salt]
